Laboratory results published in ChEMBL document CHEMBL1130503, “Synthesis and antibacterial activity of some thio trinems” (Bioorg Med Chem Lett, 1997).
Converted amounts (≈) assume the structure as drawn.

Key:
Bacteroides fragilis = assay: The compound was tested in vitro for the antibacterial activity against Bacteroides fragilis 2017 strain, activity expressed as MIC; assay type: functional
Staphylococcus aureus [1] = assay: The compound was tested in vitro for the antibacterial activity against Staphylococcus aureus 663E strain, activity expressed as MIC; assay type: functional
Staphylococcus aureus [2] = assay: The compound was tested in vitro for the antibacterial activity against Staphylococcus aureus 853E beta-lactamase producing strain, activity expressed as MIC; assay type: functional
Escherichia coli [3] = assay: The compound was tested in vitro for the antibacterial activity against Escherichia coli 1850E strain, activity expressed as MIC.; assay type: functional
Clostridium perfringens = assay: The compound was tested in vitro for the antibacterial activity against Clostridium perfringens 615E strain, activity expressed as MIC; assay type: functional
Escherichia coli [4] = assay: The compound was tested in vitro for the antibacterial activity against Escherichia coli 1919 beta-lactamase producing strain, activity expressed as MIC; assay type: functional
[5] = tested on: renal dehydropeptidase I (DHP-I); assay: Tested for Biological half life in human plasma (stability to human renal dehydropeptidase I,DHP-I).; assay type: ADME, cell-free
[6] = tested on: renal dehydropeptidase I (DHP-I); assay: Biological half life in human plasma (stability to human renal dehydropeptidase I,DHP-I).; assay type: ADME, cell-free
[7] = Clostridium perfringens, read-out: MIC

| SMILES | MIC (Bacteroides fragilis; Bacteroides fragilis) | MIC (Staphylococcus aureus [1]; Staphylococcus aureus) | MIC (Staphylococcus aureus [2]; Staphylococcus aureus) | MIC (Escherichia coli [3]; Escherichia coli) | MIC (Clostridium perfringens; [7]) | MIC (Escherichia coli [4]; Escherichia coli) | MIC (Bacteroides fragilis) | MIC (Staphylococcus aureus [1]) | half-life [5] | MIC (Staphylococcus aureus [2]) | MIC (Escherichia coli [3]) | MIC (Clostridium perfringens) | MIC (Escherichia coli [4]) | half-life [6] |
| --- | --- | --- | --- | --- | --- | --- | --- | --- | --- | --- | --- | --- | --- | --- |
| C[C@@H](O)[C@H]1C(=O)N2C(C(=O)O)=C(SCCNC=N)C[C@H]12 [IMIPENEM ANHYDROUS] | 0.12 µg/mL (≈ 0.401 µM) | 0.06 µg/mL (≈ 0.2 µM) | 0.12 µg/mL (≈ 0.401 µM) | 0.5 µg/mL (≈ 1.67 µM) | 30 µg/mL (≈ 100 µM) | 0.5 µg/mL (≈ 1.67 µM) | – | – | – | – | – | – | – | – |
| C[C@@H](O)[C@H]1C(=O)N2C(C(=O)[O-])=C3CCSCC3[C@H]12.[K+] (stereo in doubt; 15b) | – | – | – | – | – | – | 0.5 µg/mL | 1 µg/mL | < 7 min | 0.5 µg/mL | 4 µg/mL | 250 µg/mL | 1 µg/mL | – |
| C[C@@H](O)[C@H]1C(=O)N2C(C(=O)[O-])=C3CCCS[C@@H]3[C@H]12.[Na+] | 0.25 µg/mL | 1 µg/mL | 1 µg/mL | 0.5 µg/mL | 30 µg/mL | 0.5 µg/mL | – | – | – | – | – | – | – | – |
| CS[C@H]1CCS[C@H]2C1=C(C(=O)[O-])N1C(=O)[C@H]([C@@H](C)O)[C@@H]21.[Na+] | 0.2 µg/mL | 0.2 µg/mL | 0.5 µg/mL | 2 µg/mL | ≤ 10 µg/mL | 1 µg/mL | – | – | 386 min | – | – | – | – | – |
| C=CCOC(=O)C1=C2SCCC[C@H]2[C@@H]2[C@@H]([C@@H](C)O)C(=O)N12 | – | 1 µg/mL (≈ 3.23 µM) | 1 µg/mL (≈ 3.23 µM) | 1 µg/mL (≈ 3.23 µM) | 500 µg/mL (≈ 1620 µM) | 2 µg/mL (≈ 6.46 µM) | – | – | 10 min | – | – | – | – | – |
| C[C@@H](O)[C@H]1C(=O)N2C(C(=O)[O-])=C3CCSCC3[C@H]12.[K+] (stereo in doubt; 15a) | – | 1 µg/mL | 1 µg/mL | 4 µg/mL | – | 2 µg/mL | 0.12 µg/mL | – | – | – | – | 1000 µg/mL | – | 12 min |
